Source: paper PMC8037814, “Polymorphic Characterization, Pharmacokinetics, and Anti-Inflammatory Activity of Ginsenoside Compound K Polymorphs” (Molecules, 2021)
“And” between values parts separate entries of the source, which are not always exact repeats. Equal values may be shown once. Read-outs that look alike come from different tables or passages of the source.

Experiments:
[1] = tested on: carrageenan-induced acute paw inflammation; experiment: Paw swelling test induced by carrageenan in rats; assay type: in vivo, Sprague-Dawley rats; set-up: paw volume: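 right hind paw volume measured with a plethysmometer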; conditions: for paw volume / paw edema: mean±SD of 6 rats; for edema inhibition: versus model group
Protocol: Rats were divided into 11 groups of six animals each (sex in half): the normal group, the model group, indomethacin group (1 mg/kg), and form I, II, III, IV groups (each form set 10 mg/kg and 20 mg/kg groups, respectively). Indomethacin and CK were ground and suspended in 0.5% CMC-Na solution. […] The same volume of saline was injected into the normal group. […] Paw edema and inhibitory rate were calculated as the following formula, and the differences among groups were compared with the t-test. Paw edema (%) = (Vn − V0)/V0 × 100%. Vn: paw volume at different time intervals after carrageenan injection. V0: paw volume before carrageenan injection. Inhibitory rate (%) = (Em − Ee)/Em × 100%. Em: paw edema of the model group. Ee: paw edema of the experimental group.

[2] = Pharmacokinetics after oral administration of CK polymorphs in rats (20 mg/kg); assay type: in vivo, Sprague-Dawley rats; conditions: p.o. 20 mg/kg, individual rats 1-3
Protocol: All samples were analyzed with a triple quadrupole LC-MS/MS (API 4000 LC-MS/MS, AB Sciex, Framingham, MA, USA) coupled with an Agilent 1200 HPLC system (Agilent Technologies, Palo Alto, CA, USA). The MS was equipped with an electrospray system (ESI). The N2 gas temperature and ion-spray voltage were set to 550 °C and 4.5 kV, respectively. CK was measured in multiple reaction monitoring (MRM) mode using a negative electrospray ionization source at m/z 667.4 → 621.2 for CK (CID 25.6 v) and m/z 271.2 → 228.8 for internal standard (IS, (E)-5-(4-fluorostyryl)-2-isopropylbenzene-1,3-diol, Welichem Biotech Inc., Wayburne Drive Burnaby, BC, Canada) (CID 28.3 v) with a dwell time of 0.1 s.
Rats were divided randomly into 5 groups of six animals each (sex in half) and given 7 days to acclimatize to the facility before the experiments began. The four forms of CK were suspended in 0.5% sodium carboxymethyl cellulose (CMC-Na) solution and orally administered to rats at a dose of 20 mg/kg. A CK solution in a mixed solvent of dimethyl sulfoxide (DMSO)/castor oil/physiologic saline (3:5:92, v/v) was intravenously administered to the remaining group via the tail vein at a dose of 10 mg/kg. Blood samples were collected by retro-orbital puncture at the following times: 0.167, 0.333, 0.667, 1, 2, 3, 4, 6, 9, 12, and 24 h for the oral administration, and at 0.0083, 0.05, 0.133, 0.25, 0.5, 1, 2, 4, 6, and 9 h for the intravenous administration. Plasma samples were obtained by centrifuging a heparinized blood tube at 4000 rpm for 5 min and then stored at −70 °C until analysis.
The procedure for drug extraction from plasma samples was as follows: 0.2 mL acetonitrile, 0.2 mL plasma sample, and 10 μL IS (1 µg/mL) were added into a 1.5 mL Eppendorf-type tube. This mixture was vortexed for 1 min and then treated with 0.8 mL of methyl tert-butyl ether (MTBE) to precipitate the plasma proteins. After a mechanical vortex for 1 min and subsequent centrifugation (4000 rpm, 5 min), 0.8 mL of the supernatant was transferred and blow-dried with N2 at 40 °C in a water bath. Finally, the residue was dissolved in 120 μL of mobile phase, and then 10 μL was subjected to HPLC for analysis. […] Intra- and inter-day precision and accuracy never exceeded 15% by analyzing six replicate samples.
The CK pharmacokinetic parameters in rats, including the area under the curve (AUC(0–t) and AUC(0–∞)), mean residence time (MRT(0–t) and MRT(0–∞)), maximum concentration (Cmax), time to maximum concentration (Tmax), half-life (t1/2), apparent distribution volume (V), and total plasma clearance (CL), were derived from plasma concentration-time curves by using non-compartmental analysis (NCA) with DAS 2.0 software (Drug And Statistics, Mathematical Pharmacology Professional Committee of China, Shanghai, China). The absolute bioavailability (Fabs) was calculated from the dose-adjusted ratio of AUCp.o. to AUCi.v.. One-way analysis of variance (ANOVA) by SPSS 11.5 (SPSS Inc., Chicago, IL, USA) was conducted to compare the primary PK parameters.

[3] = as above; assay type: in vivo, Sprague-Dawley rats; conditions: for Fabs (absolute bioavailability): p.o. 20 mg/kg vs i.v. 10 mg/kg, dose-adjusted AUC ratio; for Tmax / t1/2z / AUC(0–t) / AUC(0–∞) / CLz/F / Cmax / Vz/F: 20 mg/kg
[4] = DSC thermal analysis of CK polymorphs; assay type: physicochemical; conditions: 20 K/min from 20 to 400 °C, dry nitrogen flow
Protocol: DSC measurements were performed on a DSC204 Phoenix calorimeter (NETZSCH, Selb, Germany) with a heating rate of 20 K/min from 20 to 400 °C. The dry nitrogen flow was about 50 mL/min. Data were analyzed using NETZSCH analysis software.

[5] = 1 mg/kg p.o. qd 3 days, 3h after carrageenan
[6] = 1 mg/kg p.o. qd 3 days, 4h after carrageenan
[7] = 1 mg/kg p.o. qd 3 days, 5h after carrageenan
[8] = 1 mg/kg p.o. qd 3 days, 6h after carrageenan
[9] = 10 mg/kg p.o. qd 3 days, 3h after carrageenan, listed as From IV
[10] = 10 mg/kg p.o. qd 3 days, 4h after carrageenan, listed as From IV
[11] = 10 mg/kg p.o. qd 3 days, 5h after carrageenan, listed as From IV
[12] = 10 mg/kg p.o. qd 3 days, 6h after carrageenan, listed as From IV
[13] = 20 mg/kg p.o. qd 3 days, 3h after carrageenan, listed as From IV
[14] = 20 mg/kg p.o. qd 3 days, 4h after carrageenan, listed as From IV
[15] = 20 mg/kg p.o. qd 3 days, 5h after carrageenan, listed as From IV
[16] = 20 mg/kg p.o. qd 3 days, 6h after carrageenan, listed as From IV
[17] = female rats, p.o. 20 mg/kg, individual rats 1-3
[18] = female rats, p.o. 20 mg/kg, mean ± SD (n = 3)
[19] = male rats, p.o. 20 mg/kg, mean ± SD (n = 3)

Compound: COc1ccc2c(c1)c(CC(=O)O)c(C)n2C(=O)c1ccc(Cl)cc1 [Indomethacin, indomethacin, reference compound]
- paw volume ([1]; 1 mg/kg p.o. qd 3 days, 0h (before carrageenan)): 1.60±0.13
- paw edema [1, 5]: 48.00±18.21%
- paw volume [1, 5]: 2.35±0.15
- edema inhibition [1, 5]: 25.32%
- paw edema [1, 6]: 43.75±15.39%
- paw volume [1, 6]: 2.28±0.12
- edema inhibition [1, 6]: 29.85%
- paw edema [1, 7]: 30.74±10.87%
- paw volume [1, 7]: 2.08±0.15
- edema inhibition [1, 7]: 40.61%
- paw edema [1, 8]: 23.41±9.18%
- paw volume [1, 8]: 1.97±0.12
- edema inhibition [1, 8]: 40.46%

Compound: CC(C)=CCCC(C)(OC1OC(CO)C(O)C(O)C1O)C1CCC2(C)C1C(O)CC1C3(C)CCC(O)C(C)(C)C3CCC12C [Form IV, 20-O-β-D-glucopyranosyl-20(S)-protopanaxadiol]
- paw volume ([1]; 10 mg/kg p.o. qd 3 days, 0h (before carrageenan), listed as From IV): 1.60±0.05
- paw edema [1, 9]: 63.73±8.98%
- paw volume [1, 9]: 2.62±0.13
- paw edema [1, 10]: 60.32±7.19%
- paw volume [1, 10]: 2.57±0.10
- paw edema [1, 11]: 40.95±1.48%
- paw volume [1, 11]: 2.26±0.05
- edema inhibition [1, 11]: 18.24%
- paw edema [1, 12]: 30.95±10.46%
- paw volume [1, 12]: 2.09±0.10
- edema inhibition [1, 12]: 13.86%
- paw volume ([1]; 20 mg/kg p.o. qd 3 days, 0h (before carrageenan), listed as From IV): 1.62±0.05
- paw edema [1, 13]: 63.17±8.40%
- paw volume [1, 13]: 2.64±0.16
- paw edema ([1]; 20 mg/kg p.o. qd 3 days, 4h after carrageenan): 58.6 ± 3.6%
- paw edema [1, 14]: 58.65±3.69%
- paw volume [1, 14]: 2.57±0.09
- paw edema [1, 15]: 39.21±10.18%
- paw volume [1, 15]: 2.26±0.13
- edema inhibition [1, 15]: 21.72%
- paw edema [1, 16]: 31.27±12.96%
- paw volume [1, 16]: 2.13±0.15
- edema inhibition [1, 16]: 12.98%
- paw edema, difference from the model group ([1]; any time point post carrageenan injection): no statistical difference
- AUC(0-t) ([2]; female rats): 1818.83 ng·h/mL and 1232.02 ng·h/mL and 885.16 ng·h/mL
- AUC(0-∞) ([2]; female rats): 897.84 ng·h/mL and 1828.44 ng·h/mL and 1234.21 ng·h/mL
- CLz/F ([2]; female rats): 371.3 mL/min/kg and 182.3 mL/min/kg and 270.2 mL/min/kg
- Cmax ([2]; female rats): 122.10 ng/mL and 340.98 ng/mL and 193.16 ng/mL
- Vz/F ([2]; female rats): 116.76 L/kg and 47.28 L/kg and 56.79 L/kg
- AUC(0-t) ([2]; male rats): 540.26 ng·h/mL and 711.78 ng·h/mL and 1023.81 ng·h/mL
- AUC(0-∞) ([2]; male rats): 603.16 ng·h/mL and 720.70 ng·h/mL and 1028.47 ng·h/mL
- CLz/F ([2]; male rats): 552.7 mL/min/kg and 462.5 mL/min/kg and 324.2 mL/min/kg
- Cmax ([2]; male rats): 115.38 ng/mL and 116.79 ng/mL and 267.12 ng/mL
- t1/2z ([2]; male rats): 3.99 h and 3.07 h and 3.39 h
- Fabs (absolute bioavailability) ([3]; female rats): 4.07%
- Tmax [3, 17]: 3.00 h
- t1/2z [3, 17]: 3.63 h and 3.00 h and 2.43 h
- AUC(0–t) [3, 18]: 1312.0 ± 471.95 ng·h/mL
- AUC(0–∞) [3, 18]: 1320.17 ± 471.22 ng·h/mL and 1320.2 ± 471.22 ng·h/mL
- CLz/F [3, 18]: 274.5 ± 94.5 mL/min/kg and 275 ± 94.5 mL/min/kg
- Cmax [3, 18]: 218.75 ± 111.66 ng/mL and 218.8 ± 111.7 ng/mL
- Tmax [3, 18]: 2.3 ± 0.58 h
- Vz/F [3, 18]: 73.61 ± 37.67 L/kg and 73.6 ± 37.7 L/kg
- t1/2z [3, 18]: 3.02 ± 0.60 h and 3.0 ± 0.60 h
- Tmax ([3]; female, Sprague-Dawley, rat, plasma, po, female rats, p.o. 20 mg/kg, mean ± SD (n = 3), read-out: Tmax): 2.33 ± 0.58 h
- Fabs (absolute bioavailability) ([3]; male rats): 2.59%
- Vz/F ([3]; male rats, p.o. 20 mg/kg, individual rats 1-3): 162.18 L/kg and 159.92 L/kg and 86.19 L/kg
- AUC(0–t) [3, 19]: 758.62 ± 245.16 ng·h/mL
- AUC(0–∞) [3, 19]: 784.11 ± 219.63 ng·h/mL
- CLz/F [3, 19]: 446.5 ± 115 mL/min/kg and 447 ± 115 mL/min/kg
- Cmax [3, 19]: 166.43 ± 87.20 ng/mL and 166.4 ± 87.20 ng/mL
- Vz/F [3, 19]: 136.10 ± 43.24 L/kg and 136 ± 43.2 L/kg
- t1/2z [3, 19]: 3.48 ± 0.47 h and 3.5 ± 0.47 h
- decrease in the bioavailability from form I to form IV ([3]; rats, p.o. 20 mg/kg): 34%
- DSC onset of the decomposition endotherm (thermodynamical stability) [4]: 250.2 °C
